# Measurements reported in PubChem BioAssay AID1919008 (Molecular Pharmacology Branch, DTP, NCI, 2023).
# Test system: DMS-114 complex spheroids with HUVEC/MSC, growth % test/control
# Experiment: Anticancer human tumor DMS-114 cell line growth inhibition [AhR];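 further: spheroids exposed to agents for 7 days before readout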;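 on viability, T/C: 100% = DMSO vehicle control wells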
# Conditions: for IC50: curve of first compound; for viability, T/C: stronger effect = lower value
# Method in brief: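 Complex tumor spheroids co-cultured with HUVEC and human MSC stroma; AhR antagonists tested in combination with standard-of-care and investigational agents. Top concentration at or near clinical Cmax (else 10 microM), half-log dilutions; growth expressed as percent test/control.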
# [1] = second compound 0.1 µM, first compound 0.0316 µM
# [2] = second compound 0.1 µM, first compound 0.1 µM
# [3] = second compound 0.1 µM, first compound 0.316 µM
# [4] = second compound 0.1 µM, first compound 1 µM
# [5] = second compound 0.1 µM, first compound 3.16 µM
# [6] = second compound 0.1 µM, first compound 10 µM
# [7] = second compound 0.316 µM, first compound 0.0316 µM
# [8] = second compound 0.316 µM, first compound 0.1 µM
# [9] = second compound 0.316 µM, first compound 0.316 µM
# [10] = second compound 0.316 µM, first compound 1 µM
# [11] = second compound 0.316 µM, first compound 3.16 µM
# [12] = second compound 0.316 µM, first compound 10 µM
# [13] = second compound 1 µM, first compound 0.0316 µM
# [14] = second compound 1 µM, first compound 0.1 µM
# [15] = second compound 1 µM, first compound 0.316 µM
# [16] = second compound 1 µM, first compound 1 µM
# [17] = second compound 1 µM, first compound 3.16 µM
# [18] = second compound 1 µM, first compound 10 µM
# [19] = second compound 3.16 µM, first compound 0.0316 µM
# [20] = second compound 3.16 µM, first compound 0.1 µM
# [21] = second compound 3.16 µM, first compound 0.316 µM
# [22] = second compound 3.16 µM, first compound 1 µM
# [23] = second compound 3.16 µM, first compound 3.16 µM
# [24] = second compound 3.16 µM, first compound 10 µM
# [25] = second compound 10 µM, first compound 0.0316 µM
# [26] = second compound 10 µM, first compound 0.1 µM
# [27] = second compound 10 µM, first compound 0.316 µM
# [28] = second compound 10 µM, first compound 1 µM
# [29] = second compound 10 µM, first compound 3.16 µM
# [30] = second compound 10 µM, first compound 10 µM
structure (smiles),measurement,setting,value
CC(C)CC(NC(=O)C(Cc1ccccc1)NC(=O)c1cnccn1)B(O)O (stereo not given) + CC(CO)NC(=O)c1cc(-c2ccc(Cl)cc2)nn(-c2cnn(C)c2)c1=O,IC50,second compound 0.1 µM,0.00361 µM
same,IC50,second compound 0.316 µM,0.00404 µM
same,IC50,second compound 1 µM,0.00333 µM
same,IC50,second compound 3.16 µM,0.00329 µM
same,IC50,second compound 10 µM,0.00434 µM
same,"viability, T/C","second compound 0.1 µM, first compound 0.000949 µM",100%
same,"viability, T/C","second compound 0.1 µM, first compound 0.003 µM",59.4%
same,"viability, T/C","second compound 0.1 µM, first compound 0.00949 µM",0.72%
same,"viability, T/C","second compound 0.1 µM, first compound 0.03 µM",0.35%
same,"viability, T/C","second compound 0.1 µM, first compound 0.0949 µM",0.11%
same,"viability, T/C","second compound 0.1 µM, first compound 0.3 µM",0.29%
same,"viability, T/C","second compound 0.316 µM, first compound 0.000949 µM",95.5%
same,"viability, T/C","second compound 0.316 µM, first compound 0.003 µM",66.8%
same,"viability, T/C","second compound 0.316 µM, first compound 0.00949 µM",1.94%
same,"viability, T/C","second compound 0.316 µM, first compound 0.03 µM",0.05%
same,"viability, T/C","second compound 0.316 µM, first compound 0.0949 µM",0.3%
same,"viability, T/C","second compound 0.316 µM, first compound 0.3 µM",0.42%
same,"viability, T/C","second compound 1 µM, first compound 0.000949 µM",113%
same,"viability, T/C","second compound 1 µM, first compound 0.003 µM",54.8%
same,"viability, T/C","second compound 1 µM, first compound 0.00949 µM",1.26%
same,"viability, T/C","second compound 1 µM, first compound 0.03 µM",0.32%
same,"viability, T/C","second compound 1 µM, first compound 0.0949 µM",0.11%
same,"viability, T/C","second compound 1 µM, first compound 0.3 µM",0.25%
same,"viability, T/C","second compound 3.16 µM, first compound 0.000949 µM",85.7%
same,"viability, T/C","second compound 3.16 µM, first compound 0.003 µM",54.4%
same,"viability, T/C","second compound 3.16 µM, first compound 0.00949 µM",0.8%
same,"viability, T/C","second compound 3.16 µM, first compound 0.03 µM",0.07%
same,"viability, T/C","second compound 3.16 µM, first compound 0.0949 µM",0.76%
same,"viability, T/C","second compound 3.16 µM, first compound 0.3 µM",0.17%
same,"viability, T/C","second compound 10 µM, first compound 0.000949 µM",99%
same,"viability, T/C","second compound 10 µM, first compound 0.003 µM",72.8%
same,"viability, T/C","second compound 10 µM, first compound 0.00949 µM",1.52%
same,"viability, T/C","second compound 10 µM, first compound 0.03 µM",0.2%
same,"viability, T/C","second compound 10 µM, first compound 0.0949 µM",0.15%
same,"viability, T/C","second compound 10 µM, first compound 0.3 µM",0.26%
COc1cc(Nc2ncc3c(n2)-c2ccc(Cl)cc2C(c2c(F)cccc2OC)=NC3)ccc1C(=O)O + CC(CO)NC(=O)c1cc(-c2ccc(Cl)cc2)nn(-c2cnn(C)c2)c1=O,IC50,second compound 0.1 µM,< 0.0316 µM
same,IC50,second compound 0.316 µM,< 0.0316 µM
same,IC50,second compound 1 µM,< 0.0316 µM
same,IC50,second compound 3.16 µM,< 0.0316 µM
same,IC50,second compound 10 µM,< 0.0316 µM
same,"viability, T/C",[1],24.8%
same,"viability, T/C",[2],25.1%
same,"viability, T/C",[3],63.5%
same,"viability, T/C",[4],53.1%
same,"viability, T/C",[5],69.2%
same,"viability, T/C",[6],54.8%
same,"viability, T/C",[7],28.4%
same,"viability, T/C",[8],25.6%
same,"viability, T/C",[9],58%
same,"viability, T/C",[10],72%
same,"viability, T/C",[11],63.7%
same,"viability, T/C",[12],65.5%
same,"viability, T/C",[13],25.8%
same,"viability, T/C",[14],23.3%
same,"viability, T/C",[15],63.6%
same,"viability, T/C",[16],58.3%
same,"viability, T/C",[17],61.4%
same,"viability, T/C",[18],59.8%
same,"viability, T/C",[19],26.2%
same,"viability, T/C",[20],21.2%
same,"viability, T/C",[21],65.6%
same,"viability, T/C",[22],62.3%
same,"viability, T/C",[23],73.6%
same,"viability, T/C",[24],64.6%
same,"viability, T/C",[25],25.6%
same,"viability, T/C",[26],24.2%
same,"viability, T/C",[27],50.6%
same,"viability, T/C",[28],61.5%
same,"viability, T/C",[29],58.9%
same,"viability, T/C",[30],66.9%
Nc1ccccc1NC(=O)c1ccc(CNC(=O)OCc2cccnc2)cc1 + CC(CO)NC(=O)c1cc(-c2ccc(Cl)cc2)nn(-c2cnn(C)c2)c1=O,IC50,second compound 0.1 µM,0.749 µM
same,IC50,second compound 0.316 µM,0.782 µM
same,IC50,second compound 1 µM,0.726 µM
same,IC50,second compound 3.16 µM,0.65 µM
same,IC50,second compound 10 µM,0.813 µM
same,"viability, T/C",[1],87.3%
same,"viability, T/C",[2],85.8%
same,"viability, T/C",[3],68.2%
same,"viability, T/C",[4],43.6%
same,"viability, T/C",[5],23.1%
same,"viability, T/C",[6],13.4%
same,"viability, T/C",[7],87%
same,"viability, T/C",[8],89.7%
same,"viability, T/C",[9],76.4%
same,"viability, T/C",[10],42.3%
same,"viability, T/C",[11],20.6%
same,"viability, T/C",[12],13.5%
same,"viability, T/C",[13],91.2%
same,"viability, T/C",[14],87.6%
same,"viability, T/C",[15],73.4%
same,"viability, T/C",[16],39.8%
same,"viability, T/C",[17],24.6%
same,"viability, T/C",[18],14.8%
same,"viability, T/C",[19],92.8%
same,"viability, T/C",[20],75.4%
same,"viability, T/C",[21],68.5%
same,"viability, T/C",[22],40.1%
same,"viability, T/C",[23],23.2%
same,"viability, T/C",[24],14.8%
same,"viability, T/C",[25],90%
same,"viability, T/C",[26],87.7%
same,"viability, T/C",[27],69.2%
same,"viability, T/C",[28],45.8%
same,"viability, T/C",[29],24.9%
same,"viability, T/C",[30],14.4%
O=C(C=Cc1cccc(S(=O)(=O)Nc2ccccc2)c1)NO + CC(CO)NC(=O)c1cc(-c2ccc(Cl)cc2)nn(-c2cnn(C)c2)c1=O,IC50,second compound 0.1 µM,0.406 µM
same,IC50,second compound 0.316 µM,0.381 µM
same,IC50,second compound 1 µM,0.459 µM
same,IC50,second compound 3.16 µM,0.543 µM
same,IC50,second compound 10 µM,0.482 µM
same,"viability, T/C",[1],75.9%
same,"viability, T/C",[2],77.6%
same,"viability, T/C",[3],55.1%
same,"viability, T/C",[4],27.2%
same,"viability, T/C",[5],13.3%
same,"viability, T/C",[6],11.9%
same,"viability, T/C",[7],77.6%
same,"viability, T/C",[8],78.3%
same,"viability, T/C",[9],53.2%
same,"viability, T/C",[10],26.2%
same,"viability, T/C",[11],11.3%
same,"viability, T/C",[12],12.4%
same,"viability, T/C",[13],84.6%
same,"viability, T/C",[14],81.2%
same,"viability, T/C",[15],61.1%
same,"viability, T/C",[16],26.9%
same,"viability, T/C",[17],11.1%
same,"viability, T/C",[18],13.5%
same,"viability, T/C",[19],82%
same,"viability, T/C",[20],76.9%
same,"viability, T/C",[21],68.1%
same,"viability, T/C",[22],29.9%
same,"viability, T/C",[23],12.4%
same,"viability, T/C",[24],12.3%
same,"viability, T/C",[25],90.6%
same,"viability, T/C",[26],68.2%
same,"viability, T/C",[27],64.6%
same,"viability, T/C",[28],35%
same,"viability, T/C",[29],13.8%
same,"viability, T/C",[30],14.5%
